Some test systems named below: BT-549; SR; SF-539; SNB-75; NCI-H522; UO-31; RXF 393; SK-MEL-5; SNB-19; MCF7; MDA-N; CCRF-CEM; NCI-H460; HCT-15; U-251; HL-60; 786-0; RPMI-8226; Malme-3M.
Assay in all cases: inhibition of tumour cell growth, NCI panel, 48 h

Experimental findings from ChEMBL document CHEMBL1201862, “PubChem BioAssay data set” (2004) are described below.

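Test compounds were applied to cells in 96-well plates for 48 hours at 5 doses. The concentration for 50% growth inhibition is given as GI50.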 The source made the active and inactive calls. Rule as the data show it: active = GI50 up to about 1.1 µM and inactive = higher. Residues, ends and D or L forms follow the SMILES beside them. *: point of attachment. Cbz = O=C(OCc1ccccc1)*; Boc = CC(C)(C)OC(=O)*; OSu = O=C1CCC(=O)N1O*; Bn = c1ccc(C*)cc1 Where only a bound is given, the exact number is not on record here.

As to `Cc1csc(NNC(N)=O)n1`, the GI50 with BT-549 was > 100 µM (inactive); with SR, 25.6 µM (inactive); with SF-539, > 100 µM (inactive); in the assay with SNB-75 it was > 100 µM (inactive); in the assay on NCI-H522, > 100 µM (inactive); in the assay on UO-31, > 100 µM (inactive). The GI50 in the assay with RXF 393, with SK-MEL-5, in the assay with SNB-19, with MCF7, with MDA-N and with CCRF-CEM was > 100 µM (inactive) throughout. The GI50 in the assay on NCI-H460 was > 100 µM (inactive); in the assay with HCT-15 it was greater than 100 µM; in the assay on U-251 it was > 100 µM (inactive); in the assay on HL-60, > 100 µM (inactive); in the assay on 786-0, > 100 µM (inactive).
On to `COc1ccc(N2C(=O)C3CC4=CC(=O)C[C@H]4[C@H]32)cc1` (stereo partly specified), for which the GI50 is 14.9 µM (inactive) in the assay with BT-549; 55.7 µM (inactive) in the assay with SR; 93.5 µM (inactive) in the assay with SNB-75; 37.2 µM (inactive) with UO-31; 82 µM (inactive) with RXF 393; > 100 µM (inactive) in the assay with SNB-19. Besides, the GI50 with MCF7 is 67.6 µM (inactive); in the assay on MDA-N it was 18.5 µM (inactive); in the assay on NCI-H460 it was 58.2 µM (inactive); in the assay with HCT-15, 40.9 µM; in the assay with U-251 it was 67.9 µM (inactive); in the assay with 786-0 it was 26.3 µM (inactive). In addition, the GI50 in the assay on RPMI-8226 is 59.8 µM (inactive).
In the case of `NN/C(=N\S(=O)(=O)c1cc(S(=O)(=O)c2ccccc2)cs1)Nc1ccc(Cl)cc1`, the GI50 in the assay with BT-549 is 31.2 µM (inactive); in the assay with SR, 9.71 µM (inactive); with SF-539, 42.7 µM (inactive); in the assay on SNB-75 it was 21.9 µM (inactive); with NCI-H522, 13.2 µM (inactive); in the assay with UO-31, 28.8 µM (inactive). Moreover, the GI50 in the assay on RXF 393 was 14.9 µM (inactive); in the assay on SK-MEL-5, 16.9 µM (inactive); in the assay with SNB-19, 42.1 µM (inactive); with MCF7, 32.4 µM (inactive); with MDA-N, 20.5 µM (inactive); in the assay on CCRF-CEM, 13.5 µM (inactive). Moreover, the GI50 is 22.5 µM (inactive) in the assay on NCI-H460; 34.3 µM in the assay on HCT-15; 23.5 µM (inactive) in the assay with U-251; 4.58 µM (inactive) in the assay with HL-60; 35.2 µM (inactive) in the assay with 786-0; 22.7 µM (inactive) with RPMI-8226.
As for `COC1=C2C=[N+](C)C3C(=C2C=CC1OC)Cc1cc2c(cc13)OCO2` (stereo unspecified), the GI50 with BT-549 is 12.7 µM (inactive); in the assay on SR, 0.879 µM (active); in the assay with Malme-3M, 3.88 µM (inactive); in the assay on SF-539, 11.8 µM (inactive); in the assay with SNB-75 it was 14.8 µM (inactive); in the assay on NCI-H522, 4.32 µM (inactive). Moreover, the GI50 with UO-31 was 13.7 µM (inactive); with SK-MEL-5, 11.2 µM (inactive); in the assay with SNB-19, 5.28 µM (inactive); in the assay on MCF7, 9.77 µM (inactive); with MDA-N, 11.4 µM (inactive); in the assay with CCRF-CEM it was 6.37 µM (inactive). Further, the GI50 was 17.7 µM in the assay with HCT-15; 9.42 µM (inactive) in the assay with U-251; 4.61 µM (inactive) with HL-60; 11.9 µM (inactive) with 786-0; 2.53 µM (inactive) in the assay on RPMI-8226.
Consider `COc1cccc2c(Nc3ccc(S(=O)(=O)N=C(N)N)cc3)c3ccc([N+](=O)[O-])cc3nc12`, for which the GI50 in the assay with BT-549 was 13.6 µM (inactive); in the assay with SR, 11.3 µM (inactive); in the assay on Malme-3M, 10.7 µM (inactive); with SF-539, 4.85 µM (inactive); in the assay with NCI-H522 it was 6.71 µM (inactive); in the assay with UO-31, 16.3 µM (inactive). Also, the GI50 with RXF 393 was 40.4 µM (inactive); in the assay on SK-MEL-5 it was 11.6 µM (inactive); in the assay with SNB-19 it was 12.6 µM (inactive); with MCF7, 4.09 µM (inactive); in the assay with MDA-N it was 17.6 µM (inactive); in the assay with CCRF-CEM, 2.38 µM (inactive). The GI50 was 4.32 µM (inactive) in the assay on NCI-H460; 30 µM in the assay with HCT-15; 5.61 µM (inactive) in the assay with U-251; 11.5 µM (inactive) with 786-0; 8.05 µM (inactive) with RPMI-8226.
Take `O=c1c2c3c(sc2nc2n1N=CN(c1ccc(Cl)cc1)C2)CCCC3`: the GI50 in the assay on BT-549 was > 100 µM (inactive); in the assay on SR, 15.7 µM (inactive); with Malme-3M, 16.2 µM (inactive); with SNB-75 it was 24.7 µM (inactive); with NCI-H522 it was 10.5 µM (inactive); in the assay with UO-31, > 100 µM (inactive). Besides, the GI50 in the assay on RXF 393 was 12.3 µM (inactive); with SK-MEL-5 it was 44.8 µM (inactive); in the assay with SNB-19, > 100 µM (inactive); in the assay with MCF7 it was > 100 µM (inactive); with MDA-N, 56.6 µM (inactive); in the assay with CCRF-CEM it was 17 µM (inactive). The GI50 with NCI-H460 was 38 µM (inactive); in the assay with HCT-15, 19.7 µM; with U-251, 54.1 µM (inactive); in the assay on 786-0, 19.3 µM (inactive); in the assay on RPMI-8226 it was 46.8 µM (inactive).
For the compound `O=C(CCCCCCCCC(=O)NN1C(=O)/C(=C\c2ccc(O)c(O)c2)SC1c1c(O)ccc2ccccc12)NN1C(=O)C(=Cc2ccc(O)c(O)c2)SC1c1c(O)ccc2ccccc12` (stereo unspecified), the GI50 in the assay on BT-549 was > 36.9 µM (inactive); in the assay with SR, 4.42 µM (inactive); in the assay on Malme-3M, 5.24 µM (inactive); with SF-539 it was 8.45 µM (inactive); in the assay on SNB-75, 60.4 µM (inactive); in the assay with NCI-H522, 5.75 µM (inactive). Further, the GI50 with UO-31 was 3.39 µM (inactive); in the assay on RXF 393, 10 µM (inactive); in the assay with SK-MEL-5, 1.93 µM (inactive); in the assay with SNB-19 it was 22.6 µM (inactive); in the assay with MCF7 it was 10.1 µM (inactive); in the assay with MDA-N it was > 41.7 µM (inactive). Moreover, the GI50 is 0.828 µM (active) in the assay on CCRF-CEM; 4.62 µM (inactive) in the assay on NCI-H460; 4.66 µM with HCT-15; 12.5 µM (inactive) in the assay on U-251; 3.46 µM (inactive) with 786-0; 3.85 µM (inactive) in the assay on RPMI-8226.
With `C[C@H](CSC(=O)c1ccccc1)C(=O)N1c2ccccc2C[C@H]1C(=O)O`, the GI50 is > 100 µM (inactive) with BT-549; 61.1 µM (inactive) in the assay on SR; > 100 µM (inactive) in the assay with SF-539; 35.3 µM (inactive) in the assay with SNB-75; 30.4 µM (inactive) with NCI-H522; 86.3 µM (inactive) in the assay with UO-31. For the same compound, the GI50 in the assay with SK-MEL-5 is 67.8 µM (inactive); in the assay with SNB-19, > 100 µM (inactive); with MCF7, 46 µM (inactive); in the assay with MDA-N, > 100 µM (inactive); in the assay on CCRF-CEM, 32.1 µM (inactive); with NCI-H460, > 10 µM (inactive). Further, the GI50 in the assay with HCT-15 is 30.5 µM; in the assay on U-251, > 100 µM (inactive); in the assay on HL-60, 33.7 µM (inactive); with 786-0 it was > 10 µM (inactive).
As for `O=C1N2CCN=C2c2ccccc2C1(O)c1ccccc1` (stereo unspecified), the GI50 with BT-549, with SR, in the assay with SF-539, in the assay on SNB-75, with UO-31 and in the assay on SK-MEL-5 was > 100 µM (inactive) in each case. Further, the GI50 in the assay on SNB-19 is > 100 µM (inactive); with MCF7 it was > 100 µM (inactive); in the assay with MDA-N it was > 100 µM (inactive); in the assay with CCRF-CEM, > 100 µM (inactive); in the assay with NCI-H460 it was > 100 µM (inactive); in the assay on HCT-15 it was greater than 100 µM. Moreover, the GI50 in the assay on U-251, with HL-60, in the assay with 786-0 and in the assay with RPMI-8226 was > 100 µM (inactive) each time.
For `CC(C)(C)OC(=O)NC(Cc1ccc(OCc2ccccc2)cc1)C(=O)NC(CCCCNC(=O)OCc1ccccc1)C(=O)NC(CCCCNC(=O)OCc1ccccc1)C(=O)ON1C(=O)CCC1=O` (stereo unspecified) (Boc-Tyr(Bn)-Lys(Cbz)-Lys(Cbz)-OSu; configuration not given here), the GI50 with BT-549 is 17.9 µM (inactive); with SR it was > 100 µM (inactive); in the assay on Malme-3M it was 54.3 µM (inactive); in the assay on SNB-75, 51.6 µM (inactive); with NCI-H522 it was 16.4 µM (inactive); in the assay on UO-31 it was > 100 µM (inactive). The GI50 in the assay with RXF 393 is 39.4 µM (inactive); in the assay with SK-MEL-5 it was 26 µM (inactive); in the assay on SNB-19, 16.6 µM (inactive); in the assay on MCF7 it was 18.9 µM (inactive); with MDA-N, 16.6 µM (inactive); with CCRF-CEM, 66.2 µM (inactive). For the same compound, the GI50 with NCI-H460 is 71.1 µM (inactive); in the assay with HCT-15, greater than 100 µM; in the assay on U-251, 16.3 µM (inactive); in the assay with 786-0 it was 20.8 µM (inactive); in the assay with RPMI-8226, > 100 µM (inactive).
With `CC1(C)CCc2c(cc3c(c2O)CCC(C)(C)O3)O1`, the GI50 in the assay on BT-549 is > 100 µM (inactive); in the assay on SR, 76.6 µM (inactive); with Malme-3M it was 12.3 µM (inactive); in the assay with SF-539, > 100 µM (inactive); in the assay with SNB-75 it was 80.5 µM (inactive); in the assay with NCI-H522, 61.1 µM (inactive). Besides, the GI50 in the assay on UO-31 is > 100 µM (inactive); in the assay on SK-MEL-5 it was 62.8 µM (inactive); in the assay with SNB-19, > 100 µM (inactive); in the assay on MCF7 it was > 100 µM (inactive); in the assay on MDA-N, > 100 µM (inactive); with CCRF-CEM, 67.8 µM (inactive). The GI50 with NCI-H460 was 57 µM (inactive); with HCT-15, 64.7 µM; with U-251, > 100 µM (inactive); in the assay on HL-60, 27.3 µM (inactive); in the assay with 786-0 it was > 10 µM (inactive).
As to `COc1cc(/C=C2/CCS(=O)(=O)c3ccc(C)cc3C2=O)cc(OC)c1OC`, the GI50 is 3.52 µM (inactive) with BT-549; 2.32 µM (inactive) in the assay with SR; 3.63 µM (inactive) in the assay with Malme-3M; 2.59 µM (inactive) in the assay with SF-539; 5.27 µM (inactive) in the assay with SNB-75; 3.39 µM (inactive) in the assay with NCI-H522. Besides, the GI50 with UO-31 was 5.75 µM (inactive); in the assay on SK-MEL-5, 2.53 µM (inactive); in the assay on SNB-19, 4.1 µM (inactive); with MCF7 it was 4.19 µM (inactive); with MDA-N, 4.29 µM (inactive); in the assay with CCRF-CEM, 2.85 µM (inactive). In addition, the GI50 was 3.23 µM (inactive) with NCI-H460; 4.59 µM in the assay on HCT-15; 4.14 µM (inactive) with U-251; 1.41 µM (inactive) in the assay on HL-60; 3.3 µM (inactive) in the assay with 786-0; 2.65 µM (inactive) with RPMI-8226.
